Where “and” joins values, the source holds several entries; their conditions need not be identical. Equal values may be shown once. Toxic doses and inconclusive results are not listed.

The values that follow come from PubChem BioAssay AID292 (DTP/NCI, 2004).

The assay deals with B6C3F1 mice, ip Sarcoma M5076, median survival T/C. As to the kind of experiment: NCI In Vivo Anticancer Drug Screen. Data for tumor model Sarcoma M5076 (intraperitoneal) in B6C3F1 mice. The settings on record: endpoint: median survival time, higher = longer survival. The gist of the method: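 The readout is a ratio of survival in drug-treated animals to survival in animals given vehicle alone, taken in mice bearing a transplanted tumour line.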

Setting [1] is: dose: 50.0 mg/kg/injection, schedule: Q04DX004 (ip), vehicle: saline with Tween-80.
Where [2] appears, read: dose: 100.0 mg/kg/injection, schedule: Q04DX004 (ip), vehicle: saline with Tween-80.
Where [3] appears, read: dose: 200.0 mg/kg/injection, schedule: Q04DX004 (ip), vehicle: saline with Tween-80.
Setting [4] is: dose: 400.0 mg/kg/injection, schedule: Q04DX004 (ip), vehicle: saline with Tween-80.
[5] abbreviates: dose: 50.0 mg/kg/injection, schedule: Q04DX004 (ip), vehicle: Klucel (hydroxypropylcellulose) (HPC).
[6] abbreviates: dose: 100.0 mg/kg/injection, schedule: Q04DX004 (ip), vehicle: Klucel (hydroxypropylcellulose) (HPC).
The mark [7] stands for this setting: dose: 37.5 mg/kg/injection, schedule: Q04DX004 (ip), vehicle: saline with Tween-80.
[8] abbreviates: dose: 75.0 mg/kg/injection, schedule: Q04DX004 (ip), vehicle: saline with Tween-80.
The mark [9] stands for this setting: dose: 150.0 mg/kg/injection, schedule: Q04DX004 (ip), vehicle: saline with Tween-80.
The mark [10] stands for this setting: dose: 300.0 mg/kg/injection, schedule: Q04DX004 (ip), vehicle: saline with Tween-80.
[11] abbreviates: dose: 12.5 mg/kg/injection, schedule: Q04DX004 (ip), vehicle: saline with Tween-80.
Where [12] appears, read: dose: 25.0 mg/kg/injection, schedule: Q04DX004 (ip), vehicle: saline with Tween-80.

Take `O=c1ncccn1[C@@H]1O[C@H](CO)[C@H](O)C1O` (stereo partly drawn): the T/C by setting is: (dose: 25.0 mg/kg/injection, schedule: Q01DX009 (ip), vehicle: saline) 99 % of control; (dose: 50.0 mg/kg/injection, schedule: Q01DX009 (ip), vehicle: saline) 103 % of control; (dose: 100.0 mg/kg/injection, schedule: Q01DX009 (ip), vehicle: saline) 104 % of control; (dose: 125.0 mg/kg/injection, schedule: Q04DX004 (ip), vehicle: saline) 92 % of control; (dose: 200.0 mg/kg/injection, schedule: Q01DX009 (ip), vehicle: saline) 110 % of control; (dose: 250.0 mg/kg/injection, schedule: Q04DX004 (ip), vehicle: saline) 94 % of control. Moreover, the T/C runs as follows: (dose: 400.0 mg/kg/injection, schedule: Q01DX009 (ip), vehicle: saline) 97 % of control; (dose: 500.0 mg/kg/injection, schedule: Q04DX004 (ip), vehicle: saline) 89 % of control; (dose: 1000.0 mg/kg/injection, schedule: Q04DX004 (ip), vehicle: saline) 92 % of control.
For the compound `CCNC(=O)OCc1cnc(C)c(OC(=O)NCC)c1COC(=O)NCC`, the T/C reads like this: under setting [1], 89 % of control; under setting [2], 90 % of control; under setting [3], 87 % of control; under setting [4], 86 % of control; (dose: 800.0 mg/kg/injection, schedule: Q04DX004 (ip), vehicle: saline with Tween-80) 91 % of control.
As for `O=C1C=C(N2CC2)C(=O)C(N2CC2)=C1N1CC1`, the T/C was 99 % of control (dose: 1.56 micrograms/kg/injection, schedule: Q04DX004 (ip), vehicle: saline); 103 % of control (dose: 3.12 micrograms/kg/injection, schedule: Q04DX004 (ip), vehicle: saline); 111 % of control (dose: 6.25 micrograms/kg/injection, schedule: Q04DX004 (ip), vehicle: saline); 111 % of control (dose: 12.5 micrograms/kg/injection, schedule: Q04DX004 (ip), vehicle: saline); 114 % of control (dose: 25.0 micrograms/kg/injection, schedule: Q04DX004 (ip), vehicle: saline).
Take `CC(C)[C@](O)(C(=O)OCC1=CC[N+]2([O-])CC[C@@H](O)[C@@H]12)[C@H](C)O` (stereo partly drawn): the T/C (dose: 75.0 mg/kg/injection, schedule: Q04DX005 (ip), vehicle: saline) was 111 % of control; the T/C (dose: 112.5 mg/kg/injection, schedule: Q04DX004 (ip), vehicle: water) is 122 % of control; the T/C (dose: 150.0 mg/kg/injection, schedule: Q04DX005 (ip), vehicle: saline) was 108 % of control; the T/C (dose: 225.0 mg/kg/injection, schedule: Q04DX004 (ip), vehicle: water) was 150 % of control; the T/C (dose: 300.0 mg/kg/injection, schedule: Q04DX005 (ip), vehicle: saline) is 153 % of control; the T/C (dose: 450.0 mg/kg/injection, schedule: Q04DX004 (ip), vehicle: water) is 199 % of control. Further, the T/C by setting is: (dose: 600.0 mg/kg/injection, schedule: Q04DX005 (ip), vehicle: saline) 230 % of control; (dose: 900.0 mg/kg/injection, schedule: Q04DX004 (ip), vehicle: water) 208 % of control; (dose: 1200.0 mg/kg/injection, schedule: Q04DX005 (ip), vehicle: saline) 230 % of control; (dose: 1800.0 mg/kg/injection, schedule: Q04DX004 (ip), vehicle: water) 291 % of control.
Regarding `O=[n+]1c2c(n([O-])c3ccccc31)CCC2`, the T/C reads like this: (dose: 21.9 mg/kg/injection, schedule: Q04DX004 (ip), vehicle: saline with Tween-80) 103 % of control; (dose: 43.75 mg/kg/injection, schedule: Q04DX004 (ip), vehicle: saline with Tween-80) 102 % of control; (dose: 87.5 mg/kg/injection, schedule: Q04DX004 (ip), vehicle: saline with Tween-80) 104 % of control; (dose: 175.0 mg/kg/injection, schedule: Q04DX004 (ip), vehicle: saline with Tween-80) 107 % of control and 108 % of control; (dose: 350.0 mg/kg/injection, schedule: Q04DX004 (ip), vehicle: saline with Tween-80) 109 % of control and 110 % of control.
In the case of `COc1ccc(OC)c(N2C(=O)C(=O)C(C(C)=O)C2=O)c1` (stereo not drawn), the T/C was 104 % of control under setting [5] and 100 % of control under setting [6].
For `O=C(CN1CCC(O)(c2ccc(F)cc2)CC1)N1CCN(C/C=C/c2ccccc2)CC1`, the T/C is, setting by setting: under setting [7], 103 % of control; under setting [8], 100 % of control; under setting [9], 102 % of control; under setting [10], 94 % of control; (dose: 600.0 mg/kg/injection, schedule: Q04DX004 (ip), vehicle: saline with Tween-80) 95 % of control.
Regarding `OC(C1CO1)C(O)C1CO1` (stereo not drawn), the T/C is 123 % of control (dose: 1.0 mg/kg/injection, schedule: Q04DX005 (ip), vehicle: saline); 169 % of control (dose: 2.0 mg/kg/injection, schedule: Q04DX005 (ip), vehicle: saline); 287 % of control (dose: 4.0 mg/kg/injection, schedule: Q04DX005 (ip), vehicle: saline); 319 % of control (dose: 8.0 mg/kg/injection, schedule: Q04DX005 (ip), vehicle: saline).
Take `COc1ncc(Br)cc1C(=O)NCCc1ccc(S(=O)(=O)NC(=O)NC2CCCCC2)cc1`: the T/C reads like this: under setting [11], 100 % of control; under setting [12], 102 % of control; under setting [1], 100 % of control.
Consider `Cc1ccc(C(=O)[O][Hg][CH2]C2COC([CH2][Hg][O]C(=O)c3ccc(C)cc3)CO2)cc1` (stereo not drawn), for which the T/C is 99 % of control (dose: 6.25 mg/kg/injection, schedule: Q04DX004 (ip), vehicle: saline with Tween-80); 88 % of control under setting [11]; 88 % of control under setting [12].
Turning to `COC1N(C2CC(O)C(CO)O2)C(=O)NC(=O)C1(F)Br` (stereo not drawn), the T/C runs as follows: (dose: 25.0 mg/kg/injection, schedule: Q04DX004 (ip), vehicle: saline) 108 % of control; (dose: 50.0 mg/kg/injection, schedule: Q04DX004 (ip), vehicle: saline) 113 % of control; (dose: 100.0 mg/kg/injection, schedule: Q04DX004 (ip), vehicle: saline) 112 % of control; (dose: 200.0 mg/kg/injection, schedule: Q04DX004 (ip), vehicle: saline) 114 % of control; (dose: 400.0 mg/kg/injection, schedule: Q04DX004 (ip), vehicle: saline) 113 % of control.
Regarding `CN(C)c1ccc2c(Nc3ccc(NS(C)(=O)=O)cc3)c3ccc(N(C)C)cc3nc2c1`, the T/C is 116 % of control (dose: 21.6 mg/kg/injection, schedule: Q04DX004 (ip), vehicle: Klucel (hydroxypropylcellulose) (HPC)); 151 % of control under setting [5]; 159 % of control under setting [6]; 172 % of control (dose: 166.7 mg/kg/injection, schedule: Q04DX004 (ip), vehicle: Klucel (hydroxypropylcellulose) (HPC)).
For `COc1cc([C@@H]2c3cc4c(c(O)c3C[C@H]3COC(=O)[C@@H]32)OCO4)cc(OC)c1OC`, the T/C was 159 % of control (dose: 4.8 mg/kg/injection, schedule: Q04DX004 (ip), vehicle: suspension in saline); 163 % of control (dose: 8.0 mg/kg/injection, schedule: Q04DX004 (ip), vehicle: suspension in saline); 155 % of control (dose: 13.3 mg/kg/injection, schedule: Q04DX004 (ip), vehicle: suspension in saline).
As for `S=c1sc(-c2ccc(Cl)cc2)nn1CSc1nc2ccccc2[nH]1`, the T/C reads like this: under setting [7], 105 % of control; under setting [8], 98 % of control; under setting [9], 96 % of control; under setting [10], 95 % of control.
In the case of `CCOC1NC(=O)Oc2ccccc21` (stereo not drawn), the T/C under setting [5] is 107 % of control; the T/C under setting [6] is 100 % of control; the T/C (dose: 200.0 mg/kg/injection, schedule: Q04DX004 (ip), vehicle: Klucel (hydroxypropylcellulose) (HPC)) is 99 % of control; the T/C (dose: 400.0 mg/kg/injection, schedule: Q04DX004 (ip), vehicle: Klucel (hydroxypropylcellulose) (HPC)) is 121 % of control.
Turning to `COc1ccc(Cl)c2c1[nH]c1nc3nc4cc(Cl)ccc4n3nc12`, the T/C was 91 % of control under setting [8] and 90 % of control under setting [9].
Turning to `CCOC(=O)c1ccc2c(=O)[nH]nc(CO)c2c1`, the T/C is 99 % of control under setting [12]; 99 % of control under setting [1]; 99 % of control under setting [2]; 101 % of control under setting [3]; 94 % of control under setting [4].
